Data: patent publication US20230113037A1 (Bayer Aktiengesellschaft, priority 2019, published 2023)
pIC50: −log10 of the molar value. Where two headings read alike, the source gives them in different places.

Assays:
AHR [1] = target: T1, AHR (Homo sapiens, UniProt P35869); test: In vitro assay 1: antagonism in human cell line (AHR transactivation, firefly luciferase reporter, kynurenic acid prestimulated); assay type: cell-based; details: AHR Antagonism Human IC50 [M]
T1 construct: U87 MG glioblastoma cells (ATCC #HTB-14) endogenously expressing AHR; endogenous in cells; host or cells: U87 MG glioblastoma cells (ATCC #HTB-14)
T1 sequence (P35869 11-848): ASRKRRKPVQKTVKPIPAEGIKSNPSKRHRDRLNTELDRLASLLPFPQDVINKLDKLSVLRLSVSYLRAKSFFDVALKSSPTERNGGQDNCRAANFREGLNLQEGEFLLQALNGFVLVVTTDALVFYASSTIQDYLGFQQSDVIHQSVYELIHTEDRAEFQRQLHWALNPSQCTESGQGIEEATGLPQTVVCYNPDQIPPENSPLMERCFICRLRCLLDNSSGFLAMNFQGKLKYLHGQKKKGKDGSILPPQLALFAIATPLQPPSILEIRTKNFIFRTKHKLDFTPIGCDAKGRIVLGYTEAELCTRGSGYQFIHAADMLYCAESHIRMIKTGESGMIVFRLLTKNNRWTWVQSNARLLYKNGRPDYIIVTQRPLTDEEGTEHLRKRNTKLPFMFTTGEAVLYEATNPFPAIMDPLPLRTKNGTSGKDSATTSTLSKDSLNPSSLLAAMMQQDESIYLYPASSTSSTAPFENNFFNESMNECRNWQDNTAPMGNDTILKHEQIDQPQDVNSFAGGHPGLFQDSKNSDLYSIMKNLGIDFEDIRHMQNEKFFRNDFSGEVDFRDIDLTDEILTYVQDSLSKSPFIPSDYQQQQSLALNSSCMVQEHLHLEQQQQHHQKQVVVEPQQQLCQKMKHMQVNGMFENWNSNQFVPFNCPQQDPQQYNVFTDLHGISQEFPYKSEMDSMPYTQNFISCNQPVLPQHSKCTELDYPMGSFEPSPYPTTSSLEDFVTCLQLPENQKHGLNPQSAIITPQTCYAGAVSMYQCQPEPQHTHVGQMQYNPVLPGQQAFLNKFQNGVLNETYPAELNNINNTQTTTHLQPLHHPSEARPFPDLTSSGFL
Summary of the method: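 Antagonism is measured against kynurenic acid prestimulation in U87 MG glioblastoma cells carrying stable DRE-luciferase and Renilla reporters. Positive inhibition control: 150 μM kynurenic acid with 5 μM staurosporine. Values are normalized to controls; repeats are averaged or given as medians.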

AHR [2] = target: T2, AHR (Mus musculus, UniProt P30561); test: In vitro assay 3: antagonism in mouse cell line (AHR transactivation, firefly luciferase reporter, kynurenic acid prestimulated); assay type: cell-based
T2 sequence (P30561 1-848 P471L/N533S/M589L): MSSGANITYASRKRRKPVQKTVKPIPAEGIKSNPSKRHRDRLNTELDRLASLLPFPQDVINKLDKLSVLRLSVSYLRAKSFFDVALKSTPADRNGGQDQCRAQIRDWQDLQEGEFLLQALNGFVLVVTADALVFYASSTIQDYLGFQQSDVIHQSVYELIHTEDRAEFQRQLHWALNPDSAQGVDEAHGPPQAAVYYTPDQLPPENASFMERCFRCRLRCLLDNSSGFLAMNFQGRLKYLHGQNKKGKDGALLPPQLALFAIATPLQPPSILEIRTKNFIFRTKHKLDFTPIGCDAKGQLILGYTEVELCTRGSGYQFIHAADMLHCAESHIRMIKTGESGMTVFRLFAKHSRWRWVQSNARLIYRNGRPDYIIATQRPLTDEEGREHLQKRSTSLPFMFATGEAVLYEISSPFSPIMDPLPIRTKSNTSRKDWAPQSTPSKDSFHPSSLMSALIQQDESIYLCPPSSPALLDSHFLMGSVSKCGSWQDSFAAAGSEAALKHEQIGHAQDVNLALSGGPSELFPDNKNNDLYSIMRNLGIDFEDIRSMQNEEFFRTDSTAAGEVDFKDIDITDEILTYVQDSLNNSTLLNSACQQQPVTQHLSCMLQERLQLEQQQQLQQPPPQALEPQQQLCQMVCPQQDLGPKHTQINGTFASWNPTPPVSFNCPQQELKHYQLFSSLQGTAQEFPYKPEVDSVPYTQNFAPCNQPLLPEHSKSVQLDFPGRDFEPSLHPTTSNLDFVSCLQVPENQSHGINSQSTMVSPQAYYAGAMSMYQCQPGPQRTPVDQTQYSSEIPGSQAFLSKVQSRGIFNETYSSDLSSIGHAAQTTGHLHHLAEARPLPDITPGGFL
Summary of the method: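 Kynurenic acid-prestimulated mouse reporter cells; stable AHR-inducible firefly luc construct with DRE sites in promoter. No-agonist wells = positive inhibition ctrl. Luminescence normalized to pos/neg ctrls; n>1 reported as mean or median.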

[3] = mouse Hepa 1c1c7 cells, 200 μM kynurenic acid, 20 hours, read-out: AHR Antagonism Mouse IC50
[4] = read-out: AHR Antagonism Mouse IC50, mouse Hepa 1c1c7 cells, 200 μM kynurenic acid, 20 hours
[5] = Hepa 1c1c7 cells, 200 μM kynurenic acid, 20 hours, firefly luciferase reporter, read-out: AHR Antagonism Mouse IC50

Row | SMILES | IC50 (AHR [1]) [M] | pIC50 (AHR [2]; [3]) | further results
1 | NC(=O)[C@@H](CO)Nc1nc2ccccc2c2nc(-c3ccc(OC(F)(F)F)cc3)nn12 [Example 329, N^2-{2-[4-(trifluoromethoxy)phenyl][1,2,4]triazolo[1,5-c]quinazolin-5-yl}-D-serinamide] | 5.94e-09 | 8.54 | 
2 | CCCCNC(=O)[C@H](C)Nc1nc2ccccc2c2nc(-c3ccc(Cl)cc3OC(F)(F)F)nn12 [Example 521, N-butyl-N^2-{2-[4-chloro-2-(trifluoromethoxy)phenyl][1,2,4]triazolo[1,5-c]quinazolin-5-yl}alaninamide] | 2.04e-08 | 7.91 | 
3 | O=C1NCCCC[C@H]1Nc1nc2ccc(F)cc2c2nc(-c3ccccc3F)nn12 [Example 234, (3R)-3-{[9-fluoro-2-(2-fluorophenyl)[1,2,4]triazolo[1,5-c]quinazolin-5-yl]amino}azepan-2-one] | 1.7e-09 | 8.85 | 
4 | CCCNC(=O)[C@@H](C)Nc1nc2ccccc2c2nc(-c3ccncc3F)nn12 [Example 487, N^2-[2-(3-fluoropyridin-4-yl)[1,2,4]triazolo[1,5-c]quinazolin-5-yl]-N-propyl-D-alaninamide] | 3.26e-07 | 6.70 | 
5 | O=C1NCCCC[C@H]1Nc1nc2ccccc2c2nc(-c3cncc(F)c3)nn12 [Example 479, (3R)-3-{[2-(5-fluoropyridin-3-yl)[1,2,4]triazolo[1,5-c]quinazolin-5-yl]amino}azepan-2-one] | 3.53e-08 |  | pIC50 (AHR [2]; [4]): 7.48
6 | Cc1c(-c2nc3c4cccc(Br)c4nc(N[C@@H]4CCCCNC4=O)n3n2)cnn1C [Example 823, (3R)-3-{[7-bromo-2-(1,5-dimethyl-1H-pyrazol-4-yl)[1,2,4]triazolo[1,5-c]quinazolin-5-yl]amino}azepan-2-one] |  |  | IC50 (AHR [1]; firefly luciferase reporter): 2.13e-09 M; pIC50 (AHR [2]; [5]): 8.52
7 | Cn1cc(-c2nc3c4cccc(C(F)(F)F)c4nc(N[C@@H]4COCCNC4=O)n3n2)cn1 [Example 732, (6R)-6-{[2-(1-methyl-1H-pyrazol-4-yl)-7-(trifluoromethyl)[1,2,4]triazolo[1,5-c]quinazolin-5-yl]amino}-1,4-oxazepan-5-one] | 1.32e-09 | 8.21 | 
8 | COc1ccc(-c2nc3c4cc(F)ccc4nc(N[C@@H]4CCCCNC4=O)n3n2)cc1 [Example 231, (3R)-3-{[9-fluoro-2-(4-methoxyphenyl)[1,2,4]triazolo[1,5-c]quinazolin-5-yl]amino}azepan-2-one] | 8.14e-10 | 9.39 | 
9 | C[C@@H](Nc1nc2c(Br)cccc2c2nc(-c3cnn(C)c3)nn12)C(=O)N1CC2(COC2)C1 [Example 917, (2R)-2-{[7-bromo-2-(1-methyl-1H-pyrazol-4-yl)[1,2,4]triazolo[1,5-c]quinazolin-5-yl]amino}-1-(2-oxa-6-azaspiro[3.3]heptan-6-yl)propan-1-one] |  |  | IC50 (AHR [1]; firefly luciferase reporter): 3.76e-08 M; pIC50 (AHR [2]; read-out: AHR Antagonism Mouse IC50, Hepa 1c1c7 cells, 200 μM kynurenic acid, 20 hours, firefly luciferase reporter): 7.18
10 | CCn1cc(-c2nc3c4cccc(C(F)(F)F)c4nc(N[C@@H]4CCCCNC4=O)n3n2)cn1 [Example 675, (3R)-3-{[2-(1-ethyl-1H-pyrazol-4-yl)-7-(trifluoromethyl)[1,2,4]triazolo[1,5-c]quinazolin-5-yl]amino}azepan-2-one] | 1.22e-09 | 8.65 | 
11 | CC[C@@H](Nc1nc2ccccc2c2nc(-c3ccccc3)nn12)C(N)=O [Example 4, (2R)-2-[(2-phenyl[1,2,4]triazolo[1,5-c]quinazolin-5-yl)amino]butanamide] | 1.68e-09 | 9.04 | 
12 | N#Cc1cccc2c1nc(N[C@@H]1CNCCNC1=O)n1nc(-c3cnn(C4CC4)c3)nc21 [Example 932, 2-(1-cyclopropyl-1H-pyrazol-4-yl)-5-{[(6R)-5-oxo-1,4-diazepan-6-yl]amino}[1,2,4]triazolo[1,5-c]quinazoline-7-carbonitrile] |  |  | IC50 (AHR [1]; firefly luciferase reporter): 1.48e-07 M; pIC50 (AHR [2]; [5]): 6.76
13 | COc1ccc(-c2nc3c4cccc(Br)c4nc(N[C@@H]4CCNC4=O)n3n2)cc1 [Example 218, (3R)-3-{[7-bromo-2-(4-methoxyphenyl)[1,2,4]triazolo[1,5-c]quinazolin-5-yl]amino}pyrrolidin-2-one] | 8.68e-09 | 7.53 | 
14 | Cc1ccccc1-c1nc2c3ccccc3nc(NC3CCNC3=O)n2n1 (stereo not drawn) [Example 43, 3-{[2-(2-methylphenyl)[1,2,4]triazolo[1,5-c]quinazolin-5-yl]amino}pyrrolidin-2-one] | 8.65e-09 | 7.70 | 
15 | CC(C)n1cc(-c2nc3c4cccc(C(F)(F)F)c4nc(N[C@@H]4CSCCNC4=O)n3n2)cn1 [Example 838, (6S)-6-({2-[1-(propan-2-yl)-1H-pyrazol-4-yl]-7-(trifluoromethyl)[1,2,4]triaozlo[1,5-c]quinazolin-5-yl}amino)-1,4-thiazepan-5-one] |  |  | IC50 (AHR [1]; firefly luciferase reporter): 9.63e-10 M; pIC50 (AHR [2]; [5]): 8.69
16 | O=C1NCCNC[C@H]1Nc1nc2cccc(C(F)(F)F)c2c2nc(-c3ccc(F)cc3)nn12 [Example 287, (6R)-6-{[2-(4-fluorophenyl)-10-(trifluoromethyl)[1,2,4]triazolo[1,5-c]quinazolin-5-yl]amino}-1,4-diazepan-5-one] | 6.55e-06 | 6.12 | 
17 | COc1cccc(-c2nc3c4c(C)cccc4nc(NC4CCNC4=O)n3n2)c1 (single isomer, unassigned) [Example 191, 3-{[2-(3-methoxyphenyl)-10-methyl[1,2,4]triazolo[1,5-c]quinazolin-5-yl]amino}pyrrolidin-2-one] | 1.96e-07 |  | pIC50 (AHR [2]; [4]): 5.96
18 | COc1ccc(-c2nc3c4cccc(S(=O)(=O)C(C)C)c4nc(N[C@@H]4CCCCNC4=O)n3n2)cc1 [Example 843, (3R)-3-{[2-(4-methoxyphenyl)-7-(propane-2-sulfonyl)[1,2,4]triazolo[1,5-c]quinazolin-5-yl]amino}azepan-2-one] |  |  | IC50 (AHR [1]; firefly luciferase reporter): 4.46e-09 M; pIC50 (AHR [2]; [5]): 7.95
19 | Cn1ccc(-c2nc3c4ccccc4nc(N[C@@H]4CCCCNC4=O)n3n2)n1 [Example 63, (3R)-3-{[2-(1-methyl-1H-pyrazol-3-yl)[1,2,4]triazolo[1,5-c]quinazolin-5-yl]amino}azepan-2-one] | 2.87e-08 | 7.38 | 
20 | CC(C)n1cc(-c2nc3c4cccc(Br)c4nc(N[C@@H]4CNCCNC4=O)n3n2)cn1 [Example 981, (6R)-6-({7-bromo-2-[1-(propan-2-yl)-1H-pyrazol-4-yl][1,2,4]triazolo[1,5-c]quinazolin-5-yl}amino)-1,4-diazepan-5-one] |  |  | IC50 (AHR [1]; firefly luciferase reporter): 2.69e-09 M; pIC50 (AHR [2]; [5]): 8.23
21 | COc1ccc(-c2nc3c4cc(Br)ccc4nc(N[C@@H]4CCCCNC4=O)n3n2)cc1 [Example 242, (3R)-3-{[9-bromo-2-(4-methoxypheny)[1,2,4]triazolo[1,5-c]quinazolin-5-yl]amino}azepan-2-one] | 3.06e-09 | 8.52 | 
